Data taken from US11478451B1, “Macrocyclic chlorine substituted indole derivatives” (Bayer Aktiengesellschaft, priority 2017, dated 2022).
Structures can show the parent of a compound that is named as a salt. Where two headings read alike, the source gives them in different places.

Experiments:
[1] = system: SUDHL5 cells; test: Induction of cytotoxicity (CellTiter-Glo, 5 h), SUDHL5; details: SUDHL5, 5 h
[2] = system: SUDHL5 cells; test: Antiproliferation assay (CellTiter-Glo, 72 h), SUDHL5; assay type: cell-based; details: IC50, median, SUDHL5, 72 h, read-out: Antiproli SUDHL5 [M] (median)
Protocol: (§1) Assessment of the Anti-Proliferative Effect of Compounds in Different Cell Lines
(§2) The impact of compounds on the proliferation of different cell lines was assessed using the CellTiter-Glo® Luminescent Cell Viability reagent from Promega (G7573).
(§3) In parallel, cells were plated in a reference (day 0) plate for time zero determination.
(§4) Rim wells were excluded. The cells were incubated for 72 h hours in a humidified incubator at 37° C. The day 0 plate was measured by adding 30 μL/well of CTG solution (CellTiter-Glo® Luminescent Cell Viability reagent, Promega G7573) to time zero wells in the reference plate followed by a 10 minutes incubation and luminescence reading at 0.1 ms. using the PHERAstar FS microplate reader (BMG Labtech).
(§5) After 72 h incubation, the treated plates were measured in the same way as the day 0 plate mentioned above.

[3] = system: SUDHL10 cells; test: Induction of cytotoxicity (CellTiter-Glo, 5 h), SUDHL10; details: SUDHL10, 5 h
[4] = system: SUDHL10 cells; test: Induction of caspase-3/7 activity (Caspase-Glo 3/7), SUDHL10; assay type: cell-based; details: EC50, median, SUDHL10, 3 h treatment
Protocol: (§6) Induction of Caspase-3/7 Activity Upon Treatment of Cells with Selected Compounds
(§7) The BH3-domain of MCL-1 sequesters pro-apoptotic proteins, thereby inhibiting apoptosis. In contrast, MCL-1 inhibitors are expected to antagonize this effect leading to an increase in apoptosis, which can be determined by measuring the activity of caspase-3/7.
(§8) The activity of caspase-3/7 was determined in DLBCL (Diffuse large B-cell lymphoma) cell lines (SUDHL5 and SUDHL10) upon treatment with different compounds, using the Caspase-Glo® 3/7 reagent from Promega (G8092).
(§9) Rim wells were excluded. The cells were incubated for 3 h hours in a humidified incubator at 37° C.
(§10) For the evaluation of the results, the background measured with “medium-only” was subtracted from all other values.

[5] = system: SUDHL5 cells; test: Induction of caspase-3/7 activity (Caspase-Glo 3/7), SUDHL5; assay type: cell-based; details: EC50, median, SUDHL5, 3 h treatment
Protocol: as §6, §7, §8, §9, §10

[6] = system: AMO-1 cells; test: Antiproliferation assay (CellTiter-Glo, 72 h), AMO-1; assay type: cell-based; details: IC50, median, AMO-1, 72 h, read-out: Antiproli AMO-1 [M] median
Protocol: as §1, §2, §3, §4, §5

[7] = Homo sapiens, SU-DHL-5, 5 h, read-out: Cytotox SUDHL5 [M] (median), IC50, median
[8] = Homo sapiens, SU-DHL10, 5 h, read-out: Cytotox SUDHL10 [M] (median), IC50, median
[9] = read-out: Cytotox SUDHL5 [M] (median), IC50, median
[10] = read-out: Cytotox SUDHL10 [M] (median), IC50, median

| IC50 ([2]; Homo sapiens, SU-DHL-5, 72 h) | EC50 ([4]; Homo sapiens, SU-DHL10, 3 h) | EC50 ([5]; Homo sapiens, SU-DHL-5, 3 h) | IC50 [2] | EC50 [4] | Structure (SMILES) | IC50 [1, 7] | IC50 [3, 8] | IC50 ([6]; Homo sapiens, AMO1, 72 h) | IC50 [1, 9] | IC50 [3, 10] | IC50 [6] | also measured |
| --- | --- | --- | --- | --- | --- | --- | --- | --- | --- | --- | --- | --- |
| 8.8e-07 M | 2800 nM | 730 nM |  |  | CCc1c2c(nn1C)COCC1(CCn3c(C(=O)O)c(CCCOc4cccc5ccccc45)c4ccc(Cl)c-2c43)CC1 (racemic) [Example 72, (rac)-4′-chloro-3′-ethyl-2′-methyl-7′-{3-[(naphthalen-1-yl)oxy]propyl}-2′,10′,11′,15′-tetrahydro-13′H-spiro[cyclopropane-1,12′-pyrazolo[4′,3′:9,10][1,6]oxazacycloundecino[8,7,6-hi]indole]-8′-carboxylic acid] | 1e-06 M | 2.5e-06 M | 2.8e-06 M |  |  |  |  |
|  |  | 2400 nM | 2.1e-06 M | 4600 nM | CCc1c2c(nn1C)COCC1CC1Cn1c(C(=O)O)c(CCCOc3cccc4cc(F)ccc34)c3ccc(Cl)c-2c31 (racemic) [Example 106, (rac)-3-chloro-4-ethyl-14-{3-[(6-fluoronaphthalen-1-yl)oxy]propyl}-5-methyl-5,7,9a,10,10a,11-hexahydro-9H-cyclopropa[3,4]pyrazolo[4′,3′:9,10][1,6]oxazacycloundecino[8,7,6-hi]indole-13-carboxylic acid] |  |  |  | 2.8e-06 M | 5.8e-06 M | 8.1e-06 M |  |
|  |  |  | 4.1e-06 M | 3400 nM | CCc1c2c(nn1C)CN(C)CC(F)(F)CCn1c(C(=O)O)c(CCCOc3cccc4cc(F)ccc34)c3ccc(Cl)c-2c31 (single isomer, unassigned) [Example 128, 4-chloro-3-ethyl-12,12-difluoro-7-{3-[(6-fluoronaphthalen-1-yl)oxy]propyl}-2,14-dimethyl-10,11,12,13,14,15-hexahydro-2H-pyrazolo[3′,4′:8,9][1,6]diazacycloundecino[10,11,1-hi]indole-8-carboxylic acid] |  |  |  | 2.3e-06 M | 3.6e-06 M | 6.5e-06 M | EC50 [5]: 2100 nM |
| 4.2e-06 M | 8300 nM | 1800 nM |  |  | CCc1c2c(nn1C)COCCCCn1c(C(=O)O)c(CCCOc3cccc4cc(F)ccc34)c3ccc(Cl)c-2c31 (single isomer, unassigned; enantiomer 1) [Example 69, 4-chloro-3-ethyl-7-{3-[(6-fluoronaphthalen-1-yl)oxy]propyl}-2-methyl-2,10,11,12,13,15-hexahydropyrazolo[4′,3′:9,10][1,6]oxazacycloundecino[8,7,6-hi]indole-8-carboxylic acid (Enantiomer 1)] | 2.3e-06 M | 7.3e-06 M |  |  |  |  |  |
| 1.5e-06 M | 1300 nM | 710 nM |  |  | CCc1c2c(nn1C)CCCCCCn1c(C(=O)O)c(CCCOc3cccc4cc(F)ccc34)c3ccc(Cl)c-2c31 (single isomer, unassigned; enantiomer 1) [Example 70, (+)-4-chloro-3-ethyl-7-{3-[(6-fluoronaphthalen-1-yl)oxy]propyl}-2-methyl-10,11,12,13,14,15-hexahydro-2H-pyrazolo[4′,3′:4,5]azacycloundecino[3,2,1-hi]indole-8-carboxylic acid-N-ethylethanamine salt (Enantiomer 1)] | 1e-06 M | 1.7e-06 M | 1.1e-06 M |  |  |  |  |
|  |  |  | 3.1e-07 M | 4900 nM | CCc1c2c(nn1C)COCC1(CCn3c(C(=O)O)c(CCCOc4cccc5cc(F)ccc45)c4ccc(Cl)c-2c43)CC1 [Example 111, (+)-4′-chloro-3′-ethyl-7′-{3-[(6-fluoronaphthalen-1-yl)oxy]propyl}-2′-methyl-2′,10′,11′,15′-tetrahydro-13′H-spiro[cyclopropane-1,12′-pyrazolo[4′,3′:9,10][1,6]oxazacycloundecino[8,7,6-hi]indole]-8′-carboxylic acid-N-ethylethanamine salt] |  |  |  | 6e-06 M | 6.7e-06 M | 8.4e-06 M | EC50 [5]: 5000 nM |

More lines, now with the values behind:

| Structure (SMILES) | IC50 ([2]; Homo sapiens, SU-DHL-5, 72 h) | EC50 ([4]; Homo sapiens, SU-DHL10, 3 h) | EC50 ([5]; Homo sapiens, SU-DHL-5, 3 h) | IC50 [2] | EC50 [4] | IC50 [1, 7] | IC50 [3, 8] | IC50 ([6]; Homo sapiens, AMO1, 72 h) | IC50 [1, 9] | IC50 [3, 10] | IC50 [6] | also measured |
| --- | --- | --- | --- | --- | --- | --- | --- | --- | --- | --- | --- | --- |
| Cc1c2c(nn1C)COCC1CCC1Cn1c(C(=O)O)c(CCCOc3cccc4ccccc34)c3ccc(Cl)c-2c31 (single isomer, unassigned) [Example 80, 3-chloro-4,5-dimethyl-15-{3-[(naphthalen-1-yl)oxy]propyl}-5,7,9,9a,10,11,11a,12-octahydrocyclobuta[3,4]pyrazolo[4′,3′:9,10][1,6]oxazacycloundecino[8,7,6-hi]indole-14-carboxylic acid] | 2.2e-07 M |  |  |  |  |  |  | 1.9e-06 M |  |  |  | IC50 ([1]; read-out: Cytotox SUDHL5 [M] (median), IC50, median, listed as 080): 5.8e-07 M; IC50 ([3]; read-out: Cytotox SUDHL10 [M] (median), IC50, median, listed as 080): 8.1e-07 M; EC50 ([4]; listed as 080): 450 nM; EC50 ([5]; listed as 080): 490 nM |
| CCc1c2c(nn1C)CCCN(C)CCn1c(C(=O)O)c(CCCOc3cccc4cc(F)ccc34)c3ccc(Cl)c-2c31 (single isomer, unassigned) [Example 117, (−)-4-chloro-3-ethyl-7-{3-[(6-fluoronaphthalen-1-yl)oxy]propyl}-2,12-dimethyl-10,11,12,13,14,15-hexahydro-2H-pyrazolo[3′,4′:8,9][1,4]diazacycloundecino[10,11,1-hi]indole-8-carboxylic acid] |  |  |  | 3.4e-06 M | 2600 nM |  |  |  | 2.6e-06 M | 2.3e-06 M | 1.2e-06 M | EC50 [5]: 2400 nM |
| Cc1c2c(nn1C)COCCCCn1c(C(=O)O)c(CCCOc3cccc4cc(F)ccc34)c3ccc(Cl)c-2c31 (single isomer, unassigned; enantiomer 1) [Example 16, (−)-4-chloro-7-{3-[(6-fluoronaphthalen-1-yl)oxy]propyl}-2,3-dimethyl-2,10,11,12,13,15-hexahydropyrazolo[4′,3′:9,10][1,6]oxazacycloundecino[8,7,6-hi]indole-8-carboxylic acid (Enantiomer 1)] | 1.5e-06 M | 5200 nM | 3600 nM |  |  | 3.3e-06 M | 4.9e-06 M | 8.9e-06 M |  |  |  |  |
| CCc1c2c(nn1C)CN(CC(F)F)CCCCn1c(C(=O)O)c(CCCOc3cccc4cc(F)ccc34)c3ccc(Cl)c-2c31 (single isomer, unassigned; enantiomer 1) [Example 75, (+)-4-chloro-14-(2,2-difluoroethyl)-3-ethyl-7-{3-[(6-fluoronaphthalen-1-yl)oxy]propyl}-2-methyl-10,11,12,13,14,15-hexahydro-2H-pyrazolo[3′,4′:8,9][1,6]diazacycloundecino[10,11,1-hi]indole-8-carboxylic acid-N-ethylethanamine salt (Enantiomer 1)] |  |  |  |  |  |  |  |  |  |  |  | IC50 ([1]; read-out: Cytotox SUDHL5 [M] (median), IC50, median, listed as 075): 9.1e-07 M; IC50 ([2]; listed as 075): 1.6e-06 M; IC50 ([3]; read-out: Cytotox SUDHL10 [M] (median), IC50, median, listed as 075): 1.4e-06 M; EC50 ([4]; listed as 075): 3500 nM; EC50 ([5]; listed as 075): 550 nM; IC50 ([6]; listed as 075): 4.8e-06 M |
| CCc1c2c(nn1C)CN(CCC(C)(C)O)CCCCn1c(C(=O)O)c(CCCOc3cccc4cc(F)ccc34)c3ccc(Cl)c-2c31 (single isomer, unassigned; enantiomer 2) [Example 141, 4-chloro-3-ethyl-7-{3-[(6-fluoronaphthalen-1-yl)oxy]propyl}-14-(3-hydroxy-3-methylbutyl)-2-methyl-10,11,12,13,14,15-hexahydro-2H-pyrazolo[3′,4′:8,9][1,6]diazacycloundecino[10,11,1-hi]indole-8-carboxylic acid (Enantiomer 2)] | 1.6e-06 M | 3600 nM | 3000 nM |  |  | 2.6e-06 M | 3.6e-06 M | 2.4e-06 M |  |  |  |  |
